Measurements taken from patent publication US6066655A, “4-phenyl-3-substituted 1,4-dihydropyridine esters” (Bayer Aktiengesellschaft, priority 1993, dated 2000).

Assays:
[1] = system: PN 200-110 binding sites in the rat brain; assay: Binding affinity for PN 200-110 (DHP) binding sites in the rat brain; conditions: for Selectivity: Ki (Heart) relative to Ki (Brain), rat; for Ki: rat brain, PN 200-110 binding sites
Source text: (§1) Binding Assays […] Can. Journ. Physiol. Pharmacol. 65, (1987) 1452. […] This manifests itself, for example, by comparison of the binding affinities for DHP (PN-200 110) binding sites in the rat brain and rat […]., Rutledge, A., Janis, […]., Can. Journ. Physiol. Pharmacol. 65 (1987), 1452].

[2] = molecular target: T1, PN 200-110 binding sites in the rat heart (Rattus norvegicus, UniProt P22002); assay: Binding affinity for PN 200-110 (DHP) binding sites in the rat heart
T1 construct: from tissue; host or cells: rat heart
Source text: as §1

T1 sequence (P22002 whole entry, other chains not shown): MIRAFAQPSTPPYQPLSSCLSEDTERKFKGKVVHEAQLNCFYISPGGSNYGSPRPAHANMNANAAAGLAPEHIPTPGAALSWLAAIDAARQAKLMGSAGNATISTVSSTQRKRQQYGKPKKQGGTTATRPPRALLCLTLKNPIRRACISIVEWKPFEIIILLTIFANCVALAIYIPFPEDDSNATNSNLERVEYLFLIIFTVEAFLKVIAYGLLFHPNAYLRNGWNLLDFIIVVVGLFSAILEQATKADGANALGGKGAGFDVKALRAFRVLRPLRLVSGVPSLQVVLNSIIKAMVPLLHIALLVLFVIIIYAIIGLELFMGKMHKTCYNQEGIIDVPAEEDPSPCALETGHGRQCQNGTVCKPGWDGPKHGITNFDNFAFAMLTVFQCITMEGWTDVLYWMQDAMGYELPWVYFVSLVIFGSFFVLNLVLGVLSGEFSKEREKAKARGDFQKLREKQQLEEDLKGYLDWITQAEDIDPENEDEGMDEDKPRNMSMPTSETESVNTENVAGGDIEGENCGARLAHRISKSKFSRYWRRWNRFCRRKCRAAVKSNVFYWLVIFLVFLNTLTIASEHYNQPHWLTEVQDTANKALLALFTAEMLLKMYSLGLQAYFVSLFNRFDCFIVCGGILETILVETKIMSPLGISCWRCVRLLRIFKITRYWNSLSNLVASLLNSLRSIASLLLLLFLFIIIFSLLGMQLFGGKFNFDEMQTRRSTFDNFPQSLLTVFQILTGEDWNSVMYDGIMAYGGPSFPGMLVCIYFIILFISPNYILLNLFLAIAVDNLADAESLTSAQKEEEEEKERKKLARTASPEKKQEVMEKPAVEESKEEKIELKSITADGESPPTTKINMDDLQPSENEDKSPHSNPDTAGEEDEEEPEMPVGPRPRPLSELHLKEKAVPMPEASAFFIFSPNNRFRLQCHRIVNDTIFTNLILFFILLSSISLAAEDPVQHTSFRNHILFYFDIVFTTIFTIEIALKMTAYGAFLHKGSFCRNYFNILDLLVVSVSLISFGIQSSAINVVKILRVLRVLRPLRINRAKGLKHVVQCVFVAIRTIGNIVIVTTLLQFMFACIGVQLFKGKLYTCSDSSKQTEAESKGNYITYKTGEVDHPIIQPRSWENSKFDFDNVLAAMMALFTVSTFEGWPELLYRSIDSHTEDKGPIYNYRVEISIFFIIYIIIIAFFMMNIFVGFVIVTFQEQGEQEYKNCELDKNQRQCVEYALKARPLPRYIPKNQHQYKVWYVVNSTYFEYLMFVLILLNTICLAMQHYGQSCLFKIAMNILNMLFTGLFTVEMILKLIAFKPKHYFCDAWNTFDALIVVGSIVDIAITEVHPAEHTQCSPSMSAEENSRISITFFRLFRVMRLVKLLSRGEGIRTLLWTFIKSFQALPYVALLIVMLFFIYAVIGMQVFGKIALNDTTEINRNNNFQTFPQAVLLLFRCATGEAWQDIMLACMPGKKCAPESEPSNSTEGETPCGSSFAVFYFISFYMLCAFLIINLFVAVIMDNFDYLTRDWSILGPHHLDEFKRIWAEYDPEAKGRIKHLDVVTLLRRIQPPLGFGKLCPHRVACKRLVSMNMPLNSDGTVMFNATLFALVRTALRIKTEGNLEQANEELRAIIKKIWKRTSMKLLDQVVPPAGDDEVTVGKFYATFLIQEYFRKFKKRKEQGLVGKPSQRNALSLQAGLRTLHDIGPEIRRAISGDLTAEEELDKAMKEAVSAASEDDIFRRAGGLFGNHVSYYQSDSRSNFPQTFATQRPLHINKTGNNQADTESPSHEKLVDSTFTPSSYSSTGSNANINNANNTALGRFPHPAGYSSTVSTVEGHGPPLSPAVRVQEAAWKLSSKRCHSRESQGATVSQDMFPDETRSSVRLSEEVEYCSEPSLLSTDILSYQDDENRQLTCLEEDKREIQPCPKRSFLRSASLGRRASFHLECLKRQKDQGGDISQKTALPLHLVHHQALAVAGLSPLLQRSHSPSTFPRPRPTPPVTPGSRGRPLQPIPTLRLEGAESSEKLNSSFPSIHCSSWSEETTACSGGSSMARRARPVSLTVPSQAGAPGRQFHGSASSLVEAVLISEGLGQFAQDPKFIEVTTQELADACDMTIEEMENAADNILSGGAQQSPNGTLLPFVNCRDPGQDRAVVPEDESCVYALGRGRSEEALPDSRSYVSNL
T1 sequence (P54290 25-944 partner limits assumed, other chains not shown): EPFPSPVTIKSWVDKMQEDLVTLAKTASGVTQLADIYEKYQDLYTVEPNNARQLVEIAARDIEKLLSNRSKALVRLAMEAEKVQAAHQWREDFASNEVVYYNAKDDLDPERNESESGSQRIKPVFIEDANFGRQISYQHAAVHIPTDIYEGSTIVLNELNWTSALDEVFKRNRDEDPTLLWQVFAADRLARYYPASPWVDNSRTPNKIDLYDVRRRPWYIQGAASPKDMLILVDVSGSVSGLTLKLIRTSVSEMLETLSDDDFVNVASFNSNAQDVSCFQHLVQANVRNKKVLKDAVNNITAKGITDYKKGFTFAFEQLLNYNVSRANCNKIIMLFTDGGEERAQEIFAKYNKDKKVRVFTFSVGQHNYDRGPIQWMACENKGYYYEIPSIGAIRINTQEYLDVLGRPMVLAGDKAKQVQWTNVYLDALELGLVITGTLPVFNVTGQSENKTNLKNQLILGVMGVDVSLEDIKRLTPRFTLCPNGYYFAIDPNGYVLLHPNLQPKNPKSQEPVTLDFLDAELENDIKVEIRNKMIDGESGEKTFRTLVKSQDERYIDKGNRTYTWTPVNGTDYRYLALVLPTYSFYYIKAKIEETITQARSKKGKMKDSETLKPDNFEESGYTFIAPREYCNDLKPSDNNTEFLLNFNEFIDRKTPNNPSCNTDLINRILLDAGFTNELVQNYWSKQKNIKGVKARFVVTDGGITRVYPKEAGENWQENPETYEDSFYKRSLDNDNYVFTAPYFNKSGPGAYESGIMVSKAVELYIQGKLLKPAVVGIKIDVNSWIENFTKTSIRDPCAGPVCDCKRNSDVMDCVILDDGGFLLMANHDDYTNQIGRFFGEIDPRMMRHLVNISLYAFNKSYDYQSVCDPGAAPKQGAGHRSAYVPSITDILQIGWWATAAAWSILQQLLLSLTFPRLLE
T1 sequence (P54290 945-1091 partner limits assumed, other chains not shown): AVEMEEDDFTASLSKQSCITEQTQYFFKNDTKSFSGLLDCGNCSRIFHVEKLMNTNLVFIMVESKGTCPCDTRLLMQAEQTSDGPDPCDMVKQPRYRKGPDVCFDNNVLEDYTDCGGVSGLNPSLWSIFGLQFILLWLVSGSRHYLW

SMILES | Selectivity [1] | Ki [1] [µM] | Ki [2] [µM]
COCCOC(=O)C1=C(C)NC(C)=C(C(=O)OC(C)C)C1c1cccc([N+](=O)[O-])c1 (stereo not shown) [Nimodipine, nimodipine] | 1.9 | 0.0024 | –
COC(=O)C1=C(C)NC(C)=C(C(=O)OCCN(C)Cc2ccccc2)C1c1cccc([N+](=O)[O-])c1 (stereo not shown) [Nicardipine, nicardipine] | 0.44 | 0.032 | –
CO[C@H](COC(=O)C1=C(C)NC(C)=C(C(=O)OC(C)C)C1c1cccc(F)c1F)c1ccccc1 (stereo partly drawn) [Example 21, isopropyl (S)-methoxy-2-phenylethyl 4-(2,3-difluorophenyl)-1,4-dihydro-2,6-dimethylpyridine-3,5-dicarboxylate] | 6.0 | 0.013 | 0.078
